# Experimental data from patent US12275733B2, “Substituted pyrido[3,4-b]indoles for the treatment of cartilage disorders” (Sanofi, priority 2016, dated 2025).
# Legend:
# ATDC5 cells = assay: Chondrogenesis activity assay in ATDC5 cells (collagen type II induction, immunofluorescence); assay type: cell-based, mouse; conditions: Mus musculus; for EC50: collagen type II induction in ATDC5 cells, concentration reaching 50% of maximum induction; for Emax: maximum percent induction of collagen type II relative to internal reference compound at 10 μM, ATDC5 cells
# How it was run: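 Collagen type II was stained in fixed, permeabilized cells with an Alexa Fluor 488 secondary and measured by high-content fluorescence imaging. ATDC5 cells had 4 days at 37 °C in insulin-supplemented differentiation medium with compound, typically 40 nM–10 μM, 0.1% DMSO. DMSO wells and a 10 μM internal reference compound were used for normalization.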
# [1] = system: primary human chondrocyte pellet cultures; assay: Chondrogenesis activity assay in primary human chondrocyte pellet cultures (proteoglycan (aggrecan) induction, Blyscan assay); assay type: cell-based; conditions: for EC50: 336 h, proteoglycan (aggrecan) induction, primary human chondrocyte pellets, 2 weeks culture; for Emax: Homo sapiens, Chondrocyte, maximum percent proteoglycan (aggrecan) induction relative to the internal reference compound at 10 μM
# Description: B) Chondrogenesis Activity Assay in Primary Human Chondrocyte Pellet Cultures
# In this assay human articular chondrocytes are harvested by enzymatic digestion from articular cartilage and passaged several times to dedifferentiate the chondrocytes and to propagate the cells. Cells are cultured as cell pellets in the presence of the compounds of the invention over 2 weeks, and the chondrogenic differentiation is quantified by the production of the chondrogenic marker aggrecan (proteoglycan).
# In detail, primary chondrocytes were harvested by enzymatic digestion from cartilage of osteoarthritis patients undergoing knee joint replacement surgery, and cultured in vitro. Cells were passaged one or two times and aliquots were cryopreserved. To initiate chondrogenesis experiments, cell aliquots were thawn, cultured in Chondrocyte Growth Medium (CGM, Lonza, #CC-3216) and passaged twice to further propagate and dedifferentiate cells. Pellet cultures were initiated by seeding 2.5×10E5 cells per well into a 96-well deep well plate in 600 μl chondrocyte differentiation medium consisting of Dulbecco's Modified Eagle Medium (DMEM, Invitrogen, #41966), 1×ITS-solution (Insulin/Transferrin/sodium selenite; 100× solution: Invitrogen, #51500056), 5 μg/mL linoleic acid (Sigma, #L1012-1G), 1× nonessential amino acids (100× solution: Invitrogen, #11140); 10 nM Dexamethasone, 2 ng/ml TGF-β1 (transforming growth factor β1) and 10 μg/ml ascorbic acid. Cells were spun to pellets by centrifugation (10 min, 400×g). Test compounds dissolved in DMSO were added to yield increasing compound concentrations, typically from 40 nM to 10 μM, and a final DMSO concentration of 0.1%, and the cell pellets cultured at 37° C., and 5% CO2 for 2 weeks. On each 96-well plate, control wells containing no test compound but the same concentration of DMSO, i.e. untreated cells, were included and used as reference for the determination of the effect of the test compounds on the cells, and wells containing an internal reference compound at a concentration of 10 μM were included and used as positive control and for standardizing the results. Chondrocyte differentiation medium and the compounds were exchanged twice weekly until harvest of the pellets.
# For harvest of the pellets, medium was removed and the pellet was homogenized by enzymatic digestion. 100 μl of protease solution containing 0.4 mg/ml papain, 50 mM sodium phosphate, 4 mM EDTA and 0.48 mg/ml L-cysteine was added to the pellet in each well of a 96-well plate, the plate was sealed with a plate sealer foil (SILVERseal, Greiner Bio-One) and incubated for 4 to 6 hours at 65° C. with agitation.
# The concentration of proteoglycan (aggrecan) was determined by quantification of the sulfated glycosaminoglycan side chains of aggrecan using the Blyscan assay (Kit from Biocolor). Aliquots of the papain-digest were transferred to 400 μl of Blyscan dye solution and incubated at room temperature for 45 min with agitation (1200 rpm). The mixture was centrifuged at 3760×g for 45 min, the supernatant was discarded, and the stained pellet was redissolved in 400 μl of Blyscan dissociation reagent by rotation until the precipitate completely resolved. Optical density was measured at 656 nm using a Tecan Saphire2 instrument, and the amount of proteoglycan determined against a standard curve with chondroitin-4-sulfate.
# Induction of proteoglycan (aggrecan) was calculated for each compound concentration relative to the control (untreated cells, i.e. no test compound added), and an EC50 value (effective concentration 50 (in μM (micromollliter)), i.e. the compound concentration at which the effect of the compound on proteoglycan (aggrecan) induction reaches 50% of the maximum induction) was calculated using a sigmoidal signal fit procedure. […]
Structure (SMILES),EC50 (ATDC5 cells) [µM],Emax (ATDC5 cells) [%],EC50 [1] [µM],Emax [1] [%]
"Cc1nccc2c1[nH]c1c(-c3ccc(OCc4ccc5ccccc5n4)cc3)cc(Cl)cc12 [Example 34, 6-Chloro-1-methyl-8-[4-(quinolin-2-ylmethoxy)-phenyl]-9H-pyrido[3,4-b]indole]",> 1.1,20 to 50,3.8,> 200
"Cc1nccc2c1[nH]c1c(-c3cccc(Oc4ncc(Br)cn4)c3)cc(Cl)cc12 [Example 37, 8-[3-(5-Bromo-pyrimidin-2-yloxy)-phenyl]-6-chloro-1-methyl-9H-pyrido[3,4-b]indole]",> 3.3,20 to 50,4.3,100 to 200
"Cc1nccc2c1[nH]c1c(-c3ccc(OCc4nccn4C)cc3)cc(Cl)cc12 [Example 39, 6-Chloro-1-methyl-8-[4-(1-methyl-1H-imidazol-2-ylmethoxy)-phenyl]-9H-pyrido[3,4-b]indole]",0.17,> 80,3.7,> 200
Cc1nccc2c1[nH]c1c(-c3ccc(OCCn4cccn4)cc3)cc(Cl)c(C)c12 [Example 45],0.13,> 80,0.22,40 to 100
"Clc1cc(-c2ccc(Cl)nc2Cl)c2c(c1)c1ccncc1n2CC1CC1 [Example 46, 6-Chloro-9-cyclopropylmethyl-8-(2,6-dichloro-pyridin-3-yl)-pyrido[3,4-b]indole]",1.4,> 80,1,100 to 200
"CCn1c2cnccc2c2cc(Cl)cc(-c3ccc(Cl)nc3Cl)c21 [Example 55, 6-Chloro-8-(2,6-dichloro-pyridin-3-yl)-9-ethyl-9H-pyrido[3,4-b]indole]",0.65,> 80,0.95,100 to 200
"Cn1cc(-c2cc(Cl)cc3c4ccncc4n(CC4CC4)c23)cn1 [Example 287, 6-Chloro-9-cyclopropylmethyl-8-(1-methyl-1H-pyrazol-4-yl)-9H-pyrido[3,4-b]indole]",0.23,50 to 80,–,–
"COc1ccc(-c2cc(Cl)cc3c4ccncc4n(C4CC4)c23)cc1 [Example 289, 6-Chloro-9-cyclopropyl-8-(4-methoxy-phenyl)-9H-pyrido[3,4-b]indole]",0.75,> 80,–,–
"Cc1nccc2c3cc(Cl)cc(-c4cnn(Cc5cccnc5)c4)c3n(CC3CC3)c12 [Example 290, 6-Chloro-9-cyclopropylmethyl-1-methyl-8-(1-pyridin-3-ylmethyl-1H-pyrazol-4-yl)-9H-pyrido[3,4-b]indole]",> 10,20 to 50,–,–
"Clc1ccc(-c2cc(Cl)cc3c4ccncc4n(CC4CC4)c23)cc1 [Example 291, 6-Chloro-8-(4-chloro-phenyl)-9-cyclopropylmethyl-9H-pyrido[3,4-b]indole]",1.7,50 to 80,–,–
"Cc1nccc2c3cc(Cl)cc(-c4ccccc4C(N)=O)c3n(CC3CC3)c12 [Example 292, 2-(6-Chloro-9-cyclopropylmethyl-1-methyl-9H-pyrido[3,4-b]indol-8-yl)-benzamide]",> 6.6,< 20,–,–
"COc1ccc(-c2cc(Cl)cc3c4ccnc(C)c4n(CC4CC4)c23)cc1 [Example 293, 6-Chloro-9-cyclopropylmethyl-8-(4-methoxy-phenyl)-1-methyl-9H-pyrido[3,4-b]indole]",4.5,50 to 80,–,–
"CN(C)c1ccc(-c2cc(Cl)cc3c4ccncc4n(CC4CC4)c23)c(Cl)n1 [Example 294, [6-Chloro-5-(6-chloro-9-cyclopropylmethyl-9H-pyrido[3,4-b]indol-8-yl)-pyridin-2-yl]-dimethyl-amine]",1.2,> 80,–,–
